As a reminder, the IC50 is the concentration at which inhibition is half-maximal. The low end stands for greater potency in that assay, the high end for weaker potency in that assay.

SMILES strings stand for the structures.

For this experiment, the target named is Human V1b receptor (Homo sapiens (Human), UniProt P47901). Kind of experiment: Binding Test for V1b Receptor ([3H]AVP, crude membrane preparation of 293FT cells). Conditions: inhibition of [3H]AVP binding (0.4 to 1 nmol/L), room temperature, 60 minutes. In outline: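 Crude membranes from 293FT cells transiently expressing human V1b, incubated with [3H]AVP (0.4 to 1 nmol/L) and compound (0.01 nmol/L–1 μmol/L final) in Tris pH 7.4 with MgCl2 and 0.1% BSA, 60 min at room temperature. Bound label collected by filtration. Nonspecific binding defined with unlabeled AVP; IC50 from dose-response curve.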
Human V1b receptor, sequence (P47901 whole entry): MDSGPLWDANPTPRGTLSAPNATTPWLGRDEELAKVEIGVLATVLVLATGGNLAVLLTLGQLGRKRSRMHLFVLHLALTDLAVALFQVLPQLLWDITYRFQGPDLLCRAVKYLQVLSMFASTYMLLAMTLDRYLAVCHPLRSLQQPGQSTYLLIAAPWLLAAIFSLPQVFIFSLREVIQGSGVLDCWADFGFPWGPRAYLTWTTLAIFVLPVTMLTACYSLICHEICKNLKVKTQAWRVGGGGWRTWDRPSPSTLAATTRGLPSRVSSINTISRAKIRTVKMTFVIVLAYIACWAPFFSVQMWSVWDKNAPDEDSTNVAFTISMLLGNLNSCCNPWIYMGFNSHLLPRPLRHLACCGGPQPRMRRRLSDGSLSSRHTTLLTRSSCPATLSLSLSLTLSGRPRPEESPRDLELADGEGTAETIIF
On to `CC(C)NC(=O)Cc1nn(-c2ccc(CCN3CCOCC3)cn2)c(=O)n1-c1cccc(Cl)c1` [Example D-04, 2-[4-(3-chlorophenyl)-1-{5-[2-(morpholin-4-yl)ethyl]pyridin-2-yl}-5-oxo-4,5-dihydro-1H-1,2,4-triazol-3-yl]-N-(propan-2-yl)acetamide], for which the IC50 is 100 to 1000 nM.
As to `COc1cc(-n2c(CC(=O)NC(C)(C)C)nn(-c3ccc(CCN4CCOCC4)cc3)c2=O)ccc1F` [Example D-05, N-tert-butyl-2-[4-(4-fluoro-3-methoxyphenyl)-1-{4-[2-(morpholin-4-yl)ethyl]phenyl}-5-oxo-4,5-dihydro-1H-1,2,4-triazol-3-yl]acetamide], the IC50 worked out at 2.5 nM.
`COc1cccc(-n2c(CC(=O)NC(C)(C)C)nn(-c3ccc(CCN4CCOCC4)cc3)c2=O)c1` [Example D-06, N-tert-butyl-2-[4-(3-methoxyphenyl)-1-{4-[2-(morpholin-4-yl)ethyl]phenyl}-5-oxo-4,5-dihydro-1H-1,2,4-triazol-3-yl]acetamide] gave an IC50 of 4.6 nM.
In turn, `COc1cccc(-n2c(CC(=O)NC(C)(C)C)nn(-c3ccc(CCN4C5CCC4COC5)cc3)c2=O)c1` [Example D-07, N-tert-butyl-2-[4-(3-methoxyphenyl)-1-{4-[2-(3-oxa-8-azabicyclo[3.2.1]oct-8-yl)ethyl]phenyl}-5-oxo-4,5-dihydro-1H-1,2,4-triazol-3-yl]acetamide] gave an IC50 of 5.5 nM.
Take `COc1cccc(-n2c(CC(=O)NC(C)(C)C)nn(-c3ccc(CCN4CCOCC4)cn3)c2=O)c1` [Example D-08, N-tert-butyl-2-[4-(3-methoxyphenyl)-1-{5-[2-(morpholin-4-yl)ethyl]pyridin-2-yl}-5-oxo-4,5-dihydro-1H-1,2,4-triazol-3-yl]acetamide]: the IC50 lay in the range of 10 to 100 nM.
Then `COc1cccc(-n2c(CC(=O)NC(C)(C)C)nn(-c3ccc(CCN4C5CCC4COC5)cn3)c2=O)c1` [Example D-09, N-tert-butyl-2-[4-(3-methoxyphenyl)-1-{5-[2-(3-oxa-8-azabicyclo[3.2.1]oct-8-yl)ethyl]pyridin-2-yl}-5-oxo-4,5-dihydro-1H-1,2,4-triazol-3-yl]acetamide], with 10 to 100 nM.
As for `COc1cc(-n2c(CC(=O)NC(C)(C)C)nn(-c3ccc(CCN4C5CCC4COC5)cc3)c2=O)ccc1F` [Example D-10, N-tert-butyl-2-[4-(4-fluoro-3-methoxyphenyl)-1-{4-[2-(3-oxa-8-azabicyclo[3.2.1]oct-8-yl)ethyl]phenyl}-5-oxo-4,5-dihydro-1H-1,2,4-triazol-3-yl]acetamide], the figure is 7.1 nM; as for `COc1cc(-n2c(CC(=O)NC(C)(C)C)nn(-c3ccc(CCN4CCOCC4)cn3)c2=O)ccc1F` [Example D-11, N-tert-butyl-2-[4-(4-fluoro-3-methoxyphenyl)-1-{5-[2-(morpholin-4-yl)ethyl]pyridin-2-yl}-5-oxo-4,5-dihydro-1H-1,2,4-triazol-3-yl]acetamide], 10 to 100 nM; as for `COc1cc(-n2c(CC(=O)NC(C)(C)C)nn(-c3ccc(CCN4C5CCC4COC5)cn3)c2=O)ccc1F` [Example D-12, N-tert-butyl-2-[4-(4-fluoro-3-methoxyphenyl)-1-{5-[2-(3-oxa-8-azabicyclo[3.2.1]oct-8-yl)ethyl]pyridin-2-yl}-5-oxo-4,5-dihydro-1H-1,2,4-triazol-3-yl]acetamide], 7 nM.
Consider `CC(C)(C)NC(=O)Cc1nn(-c2ccc(CCN3CCOCC3)cn2)c(=O)n1-c1cccc(Cl)c1` [Example D-15, N-tert-butyl-2-[4-(3-chlorophenyl)-1-{5-[2-(morpholin-4-yl)ethyl]pyridin-2-yl}-5-oxo-4,5-dihydro-1H-1,2,4-triazol-3-yl]acetamide], for which the IC50 lay within 10 to 100 nM.
As to `CC(C)(C)NC(=O)Cc1nn(-c2ccc(CCN3C4CCC3COC4)cn2)c(=O)n1-c1cccc(Cl)c1` [Example D-16, N-tert-butyl-2-[4-(3-chlorophenyl)-1-{5-[2-(3-oxa-8-azabicyclo[3.2.1]oct-8-yl)ethyl]pyridin-2-yl}-5-oxo-4,5-dihydro-1H-1,2,4-triazol-3-yl]acetamide], the IC50 was 10 to 100 nM.
Consider `CC(C)NC(=O)Cc1nn(-c2ccc(CC(C)N3CCOCC3)cc2)c(=O)n1-c1cccc(Cl)c1` [Example D-17, 2-[4-(3-chlorophenyl)-1-{4-[2-(morpholin-4-yl)propyl]phenyl}-5-oxo-4,5-dihydro-1H-1,2,4-triazol-3-yl]-N-(propan-2-yl)acetamide], for which the IC50 was 3.9 nM.
Then `CC(C)NC(=O)Cc1nn(-c2ccc(CC(C)N3CCOCC3)cn2)c(=O)n1-c1cccc(Cl)c1` [Example D-19, 2-[4-(3-chlorophenyl)-1-{5-[2-(morpholin-4-yl)propyl]pyridin-2-yl}-5-oxo-4,5-dihydro-1H-1,2,4-triazol-3-yl]-N-(propan-2-yl)acetamide], with 10 to 100 nM; and `CC(C)NC(=O)Cc1nn(-c2ccc(CCN3CCOCC3)c(F)c2)c(=O)n1-c1cccc(Cl)c1` [Example D-20, 2-[4-(3-chlorophenyl)-1-{3-fluoro-4-[2-(morpholin-4-yl)ethyl]phenyl}-5-oxo-4,5-dihydro-1H-1,2,4-triazol-3-yl]-N-(propan-2-yl)acetamide], with 20 nM; and `CC(C)NC(=O)Cc1nn(-c2ccc(CCN3C4CCC3COC4)c(F)c2)c(=O)n1-c1cccc(Cl)c1` [Example D-21, 2-[4-(3-chlorophenyl)-1-{3-fluoro-4-[2-(3-oxa-8-azabicyclo[3.2.1]oct-8-yl)ethyl]phenyl}-5-oxo-4,5-dihydro-1H-1,2,4-triazol-3-yl]-N-(propan-2-yl)acetamide], with 7.5 nM.
Then `COc1cc(-n2nc(CC(=O)NC(C)C)n(-c3cccc(Cl)c3)c2=O)ccc1CCN1CCOCC1` [Example D-22, 2-[4-(3-chlorophenyl)-1-{3-methoxy-4-[2-(morpholin-4-yl)ethyl]phenyl}-5-oxo-4,5-dihydro-1H-1,2,4-triazol-3-yl]-N-(propan-2-yl)acetamide], with 12 nM.
Then `COc1cc(-n2nc(CC(=O)NC(C)C)n(-c3cccc(Cl)c3)c2=O)ccc1CCN1C2CCC1COC2` [Example D-23, 2-[4-(3-chlorophenyl)-1-{3-methoxy-4-[2-(3-oxa-8-azabicyclo[3.2.1]oct-8-yl)ethyl]phenyl}-5-oxo-4,5-dihydro-1H-1,2,4-triazol-3-yl]-N-(propan-2-yl)acetamide], with 3.3 nM.
In turn, `CC(C)NC(=O)Cc1nn(-c2ccc(CCN3C4CCC3COC4)cc2F)c(=O)n1-c1cccc(Cl)c1` [Example D-24, 2-[4-(3-chlorophenyl)-1-{2-fluoro-4-[2-(3-oxa-8-azabicyclo[3.2.1]oct-8-yl)ethyl]phenyl}-5-oxo-4,5-dihydro-1H-1,2,4-triazol-3-yl]-N-(propan-2-yl)acetamide] showed an IC50 of 10 to 100 nM.
Then `COc1cc(CCN2C3CCC2COC3)ccc1-n1nc(CC(=O)NC(C)C)n(-c2cccc(Cl)c2)c1=O` [Example D-25, 2-[4-(3-chlorophenyl)-1-{2-methoxy-4-[2-(3-oxa-8-azabicyclo[3.2.1]oct-8-yl)ethyl]phenyl}-5-oxo-4,5-dihydro-1H-1,2,4-triazol-3-yl]-N-(propan-2-yl)acetamide], with 100 to 1000 nM; and `CC(C)NC(=O)Cc1nn(-c2ccc(CCN3CCOCC3)cc2)c(=O)n1-c1ccc(F)c(Cl)c1` [Example D-26, 2-[4-(3-chloro-4-fluorophenyl)-1-{4-[2-(morpholin-4-yl)ethyl]phenyl}-5-oxo-4,5-dihydro-1H-1,2,4-triazol-3-yl]-N-(propan-2-yl)acetamide], with 4.4 nM.
As for `CC(C)NC(=O)Cc1nn(-c2ccc(CCN3C4CCC3COC4)cc2)c(=O)n1-c1ccc(F)c(Cl)c1` [Example D-27, 2-[4-(3-chloro-4-fluorophenyl)-1-{4-[2-(3-oxa-8-azabicyclo[3.2.1]oct-8-yl)ethyl]phenyl}-5-oxo-4,5-dihydro-1H-1,2,4-triazol-3-yl]-N-(propan-2-yl)acetamide], the figure is 5.3 nM; as for `CC(C)NC(=O)Cc1nn(-c2ccc(CCN3CCOCC3)cn2)c(=O)n1-c1ccc(F)c(Cl)c1` [Example D-28, 2-[4-(3-chloro-4-fluorophenyl)-1-{5-[2-(morpholin-4-yl)ethyl]pyridin-2-yl}-5-oxo-4,5-dihydro-1H-1,2,4-triazol-3-yl]-N-(propan-2-yl)acetamide], 10 to 100 nM; as for `CC(C)NC(=O)Cc1nn(-c2ccc(CCN3C4CCC3COC4)cn2)c(=O)n1-c1ccc(F)c(Cl)c1` [Example D-29, 2-[4-(3-chloro-4-fluorophenyl)-1-{5-[2-(3-oxa-8-azabicyclo[3.2.1]oct-8-yl)ethyl]pyridin-2-yl}-5-oxo-4,5-dihydro-1H-1,2,4-triazol-3-yl]-N-(propan-2-yl)acetamide], 10 to 100 nM.
In turn, `CC(C)(C)NC(=O)Cc1nn(-c2ccc(CCN3CCOCC3)cc2)c(=O)n1-c1ccc(F)c(Cl)c1` [Example D-30, N-tert-butyl-2-[4-(3-chloro-4-fluorophenyl)-1-{4-[2-(morpholin-4-yl)ethyl]phenyl}-5-oxo-4,5-dihydro-1H-1,2,4-triazol-3-yl]acetamide] displayed a concentration for half-maximal inhibition (IC50) of 2.8 nM.
On to `CC(C)(C)NC(=O)Cc1nn(-c2ccc(CCN3C4CCC3COC4)cc2)c(=O)n1-c1ccc(F)c(Cl)c1` [Example D-31, N-tert-butyl-2-[4-(3-chloro-4-fluorophenyl)-1-{4-[2-(3-oxa-8-azabicyclo[3.2.1]oct-8-yl)ethyl]phenyl}-5-oxo-4,5-dihydro-1H-1,2,4-triazol-3-yl]acetamide], for which the IC50 came to 2.9 nM.
On to `CC(C)(C)NC(=O)Cc1nn(-c2ccc(CCN3CCOCC3)cn2)c(=O)n1-c1ccc(F)c(Cl)c1` [Example D-32, N-tert-butyl-2-[4-(3-chloro-4-fluorophenyl)-1-{5-[2-(morpholin-4-yl)ethyl]pyridin-2-yl}-5-oxo-4,5-dihydro-1H-1,2,4-triazol-3-yl]acetamide], for which the IC50 amounted to 17 nM.

These data come from US9522914B2, “Azole derivative” (TAISHO PHARMACEUTICAL CO., LTD, priority 2011, dated 2016).
